Results published in BindingDB's records for patent US12091399 (Boehringer Ingelheim International, 2024).

Target: Plasma kallikrein (Homo sapiens, UniProt P03952)
Assay: Evaluation of the Inhibition of PKK Using an Endpoint Assay
Protocol: Subsequently, PPACK II (Calbiochem) was added as a stop solution to achieve a final concentration of 1 μM and fluorescence was measured using an Envision Reader (PerkinElmer) with the wavelength excitation setting of 355 nm and the wavelength emission setting of 460 nm.

Plasma kallikrein, sequence (P03952 20-390 limits assumed): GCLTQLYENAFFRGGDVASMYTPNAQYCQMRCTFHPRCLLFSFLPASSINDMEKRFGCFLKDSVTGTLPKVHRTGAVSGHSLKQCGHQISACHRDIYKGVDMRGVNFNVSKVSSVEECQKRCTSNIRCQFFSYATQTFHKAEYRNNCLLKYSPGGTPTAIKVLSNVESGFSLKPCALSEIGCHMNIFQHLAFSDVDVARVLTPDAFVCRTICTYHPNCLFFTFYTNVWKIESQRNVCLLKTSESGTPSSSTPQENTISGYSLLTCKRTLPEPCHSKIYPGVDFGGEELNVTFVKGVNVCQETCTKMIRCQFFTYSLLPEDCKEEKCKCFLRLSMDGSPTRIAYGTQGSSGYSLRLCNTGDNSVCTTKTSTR
Plasma kallikrein, sequence (P03952 391-638 limits assumed): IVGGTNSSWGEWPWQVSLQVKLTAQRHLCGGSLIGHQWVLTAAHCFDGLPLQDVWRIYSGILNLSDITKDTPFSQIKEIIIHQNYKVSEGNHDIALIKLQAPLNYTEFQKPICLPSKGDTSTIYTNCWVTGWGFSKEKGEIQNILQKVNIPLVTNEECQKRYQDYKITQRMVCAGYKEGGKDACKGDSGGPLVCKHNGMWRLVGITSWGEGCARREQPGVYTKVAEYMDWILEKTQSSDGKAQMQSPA

Cc1nc(N2C[C@@H]3[C@@H](N)[C@@H]3C2)ccc1Cn1cc(C(=O)NCc2cc(Cl)ccc2-n2cnnn2)cn1 [US12091399, Example 58]
IC50: 38 nM
